The nature of data set [1]: Acute toxicity in mice (i.p., Litchfield and Wilcoxon). The settings on record: mouse, in vivo, ip, albino I.C.R. Swiss mice, both sexes. Type of data set: in vivo, albino I.C.R. Swiss mice. As for the experimental part:
(§1) The acute toxicity studies were carried out in albino I.C.R. Swiss mice weighing 30 ± 2 g, of both sexes. The products were administered intraperitoneally (i.p). The acute toxicity was calculated according to the method of Litchfield and Wilcoxon.

In the next data set the test system is albino I.C.R. Swiss mice. Described as above. Type of data set: in vivo. The settings on record: mice. As to the method:
as §1

In data set [2] the test system is acetic acid-induced writhing. The data set is described as follows: Analgesia, acetic acid-induced writhing technique in mice. The class given is in vivo, albino I.C.R. Swiss mice. Particulars: for No. of writhes (x ± M.S.E.): Table B-I, control 112.1 ± 4.2; for No. of writhes (x ± M.S.E.) / Number of writhes (x ± M.S.E.): 30 min before acetic acid, counted during 20 min; for analgesic activity: mice, i.p., compared with dextropropoxyphene; for Number of writhes (x ± M.S.E.): Table B-II, control 99.6 ± 5.6. As to the method:
The analgesic action was investigated in albino I.C.R. Swiss mice, using the acetic acid-induced writhing technique. Groups each of 10 mice were assembled.
The analgesics were injected intraperitoneally (i.p), and after 30 minutes 0.25 ml of a 1% solution of acetic acid was injected i.p. A control group received acetic acid only. The number of writhes made by each mouse was counted during the 20 minutes following the administration of acetic acid.

Setting [3] is: dextropropoxyphene, 25 mg/kg i.p.

As usually defined, the LD50 is the dose expected to kill half of the subjects tested. Read a low LD50 as greater toxicity.

Take `COc1cc(CC2C(C)=C(C)CCN2C)cc(OC)c1OC` (centres unmarked) [Product I, 1,3,4-trimethyl-2-(3,4,5-trimethoxybenzyl)-1,2,5,6-tetrahydropyridine]: the LD50 in data set [1] amounted to 154 mg/kg. The “Acute toxicity compared with dextropropoxyphene” value with albino I.C.R. Swiss mice is “less toxic than dextropropoxyphene”. Further, in data set [2] (Product I, 20 mg/kg i.p.), the “No. of writhes (x ± M.S.E.)” value is reported as 74.5 ± 4.84 writhes. Also, the “analgesic activity” value in data set [2] was “has analgesic activity but less than that of dextropropoxyphene”.

`COc1cc(C(O)c2nccc(C)c2C)cc(OC)c1OC` (centres unmarked) [Product II, 3,4,5-trimethoxyphenyl-(3,4-dimethyl-2-pyridyl)carbinol]: the median lethal dose (LD50) in data set [1] was 292 mg/kg. Moreover, the “Acute toxicity compared with dextropropoxyphene” value with albino I.C.R. Swiss mice is given as “less toxic than dextropropoxyphene”. Also, in data set [2] (Product II, 40 mg/kg i.p.), the “Number of writhes (x ± M.S.E.)” value amounted to 29 ± 7.3 writhes. Besides, the “analgesic activity” value in data set [2] is listed as “high analgesic activity”.

As to `CCC(=O)O[C@](Cc1ccccc1)(c1ccccc1)[C@H](C)CN(C)C` [Dextropropoxyphene, reference compound], the LD50 in data set [1] was 140 mg/kg. For the same compound, in data set [2] (setting [3]), the “No. of writhes (x ± M.S.E.)” value worked out at 22.8 ± 4.74 writhes and the “Number of writhes (x ± M.S.E.)” value was 50.2 ± 4.4 writhes.

(Values after patent publication US4000283A, “Compound 3,4,5-trimethoxyphenyl-(3,4-dimethyl-2-pyridyl)-carbonyl” (priority 1974, dated 1976).)
